Our source for the Ki, 2C/2A and ED50 values is patent US12559471B2, “1,5-dihydro-2,4-benzodiazepine-3-one derivative and application thereof” (JIANGSU NHWA PHARMACEUTICAL CO., LTD, priority 2020, dated 2026).

One assay addresses 5-HT2C receptor (Rattus norvegicus (Rat), UniProt P08909).
The target in the next assay is 5-HT2A receptor (Homo sapiens (Human), UniProt P28223). In words: Competitive 5-HT2A receptor binding assay (3H-Ketanserin, CHO-5-HT2A membrane). To be noted: for 2C/2A: ratio of 5-HT2C Ki to 5-HT2A Ki. The procedure: 1) Preparation of CHO-5-HT2A Receptor Membrane
The precipitate was collected, and the supernatant was discarded. The solution B was added into the precipitate. […] The supernatant was carefully discarded, and the solution B was added into the precipitate again. […] The precipitate obtained was stored at −80° C.
1) Competitive 5-HT2A Receptor Binding Assay
Step 2: 100 μL of the membrane preparation was added into each reaction tube.
After the filtration, the filter membrane was dried at 60° C. and added into a scintillation disc attached with a bottom membrane, which was then added with 40 μL of scintillation liquid, sealed with a top membrane, and left to stand.

For assay [1], the system named is MK-801-induced high activity behavior of mice. In words: Dizocilpine (MK-801)-induced high activity test in mice. As to conditions: Mus musculus, 1 h, intragastric, MK-801 0.3 mg/kg i.p., 60 min, read-out: ED50 for inhibiting the MK-801-induced high activity behavior. The assay is classed as in vivo. How it is done: 2. Dizocilpine (MK-801)-Induced High Activity Test in Mice 2.1 Test Method
Mice were stratified according to body weight and then randomly divided into a model control group, a blank control group and drug administration groups. After the administration of a test substance (or a control substance), the mice were placed into an autonomous activity test box (a black polyethylene box with the specification of 29 cm×29 cm×30 cm) for adaptation, and injected with MK-801 at 0.3 mg/kg intraperitoneally 1 h after the intragastric administration. The mice were then placed into the autonomous activity test box for video recording for 60 min. Video analysis was performed after the video recording to evaluate the activity of the mice.

The subject of assay [2] is DOI-induced head shaking behavior of mice. Kind of assay: DOI-induced head shaking (head thrust) test in mice. The assay is classed as in vivo. As to conditions: Mus musculus, intragastric, DOI 1 mg/kg i.p., 0-20 min, read-out: ED50 for inhibiting the DOI-induced head shaking behavior. How it is done:
1. Head Thrust Test in Mice
Mice were stratified according to body weight and then randomly divided into a model control group, a blank control group and drug administration groups. 1 h after the intragastric administration of a vehicle or a drug, the animals were placed in a beaker (with the diameter of 13 cm and the height of 19 cm) paved with fresh padding, and were injected with a modeling drug DOI ((±)-1-(2,5-dimethoxy-4-iodophenyl)-2-aminopropane hydrochloride or (±)-2,5-dimethoxy-4-iodoamphetamine hydrochloride) intraperitoneally at a dose of 1 mg/kg. The head shaking times of the mice during the 0-20 min after the intraperitoneal injection of DOI were recorded. The head shaking behavior is defined as a rapid rotational twitching or wet dog-like shaking of the mouse head, which is distinguished from normal grooming or exploring behavior.

[3] abbreviates: read-out: 5-HT2C (Ki value), rat cortex membrane, 3H-Mesulergine.
[4] abbreviates: CHO-5-HT2A membrane, 3H-Ketanserin, read-out: 5-HT2A (Ki value).

Where two headings read alike, the source gives them in different places.

Sequence of 5-HT2A receptor (P28223 whole entry): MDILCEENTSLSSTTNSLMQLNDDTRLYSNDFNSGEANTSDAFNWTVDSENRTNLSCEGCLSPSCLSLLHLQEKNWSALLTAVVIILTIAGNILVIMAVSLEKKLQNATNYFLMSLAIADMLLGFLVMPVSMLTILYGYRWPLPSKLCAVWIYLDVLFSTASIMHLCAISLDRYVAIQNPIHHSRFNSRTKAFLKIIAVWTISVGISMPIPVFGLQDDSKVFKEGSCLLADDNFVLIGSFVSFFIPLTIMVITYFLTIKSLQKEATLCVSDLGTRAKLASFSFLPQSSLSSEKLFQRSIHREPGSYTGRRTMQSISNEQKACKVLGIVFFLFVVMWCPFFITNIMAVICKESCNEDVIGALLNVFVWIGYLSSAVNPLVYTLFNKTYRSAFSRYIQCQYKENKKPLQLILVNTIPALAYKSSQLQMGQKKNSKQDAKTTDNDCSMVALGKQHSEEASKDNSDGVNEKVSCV
Sequence of 5-HT2C receptor (P08909 33-460): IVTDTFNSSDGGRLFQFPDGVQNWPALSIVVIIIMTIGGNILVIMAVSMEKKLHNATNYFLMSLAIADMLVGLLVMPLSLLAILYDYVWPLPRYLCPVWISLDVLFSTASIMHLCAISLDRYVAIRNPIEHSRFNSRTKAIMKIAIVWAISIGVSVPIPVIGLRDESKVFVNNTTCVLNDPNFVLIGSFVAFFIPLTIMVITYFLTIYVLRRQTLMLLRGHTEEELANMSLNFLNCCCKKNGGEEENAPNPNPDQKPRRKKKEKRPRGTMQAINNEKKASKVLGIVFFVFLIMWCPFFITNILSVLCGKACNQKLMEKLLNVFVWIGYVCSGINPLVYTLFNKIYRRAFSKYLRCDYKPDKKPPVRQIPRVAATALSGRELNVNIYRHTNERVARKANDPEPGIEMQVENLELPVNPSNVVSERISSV
Experimental for 5-HT2C receptor: 2) Preparation of 5-HT2C Membrane
The rat cortex was taken out of a refrigerator at −80° C. and thawed spontaneously. The solution A was added, and the mixture was homogenized for 3-4 s at 4th gear for a total of 4 times and centrifuged at 50000 g for 25 min at 4° C. The supernatant was discarded, and the solution A was added into the precipitate. The mixture was mixed well using a vortex mixer and centrifuged at 50000 g for 25 min at 4° C. (repeated twice). The supernatant was discarded after the centrifugation, and the precipitate was stored at −80° C. for later use.
2) Competitive 5-HT2C Receptor Binding Assay
Step 1: the prepared membrane was suspended in the homogenate B to obtain a 210 mg/mL membrane suspension for later use.
Step 2: 100 μL of the membrane suspension was added into each reaction tube.
Step 3: 100 μL of the solution B was added into a total binding tube (TB), 100 μL of Ketanserin (final concentration: 1.0×10^−5 M) was added into a non-specific binding tube (NB), and 100 μL of test compound was added into each compound binding tube (CB).
Step 4: 10 μL of radioligand ^3H-Mesulergine was added into each reaction tube to reach a final concentration of 3 nM.
Step 5: each reaction tube was incubated at 37° C. for 25 min. After the reaction was completed, the binding ligands were rapidly filtered under reduced pressure, wherein the Whatman test paper GF/C was washed with 0.5% PEI solution 1 h in advance. The filter membrane was fully washed with cold Tris buffer solution, taken out and put into a 4 mL scintillation disc, which was then added with 1 mL toluene scintillation solution and shaken for mixing well.
Step 6: the scintillation disc was put into a liquid scintillation counter for counting.

By Ki is commonly meant the dissociation constant of the complex between target and ligand, obtained from inhibition or displacement. In the case of `CC(C)CNc1ccc(CN2Cc3ccc(F)cc3CN(C3CCN(C)CC3)C2=O)cc1` [NH-K-A19007, 8-fluoro-2-(1-methylpiperidin-4-yl)-4-[[4-(2-methylpropylamino)phenyl]methyl]-1,5-dihydro-2,4-benzodiazepine-3-one], the inhibition constant Ki on 5-HT2C receptor (setting [3]) came out at 27.3 nM; on 5-HT2A receptor (setting [4]), 2.72 nM. For the same molecule, at 5-HT2A receptor, the 2C/2A was determined as 10.040.
For `CC(C)Cc1ccc(CN2Cc3ccc(F)cc3CN(C3CCN(C)CC3)C2=O)cc1` [NH-K-A19008, 8-fluoro-2-(1-methylpiperidin-4-yl)-4-[[4-(2-methylpropyl)phenyl]methyl]-1,5-dihydro-2,4-benzodiazepine-3-one] the same measures were 42.4 nM, 5.29 nM and 7.999.
For `COc1ccc(CN2Cc3ccc(F)cc3CN(C3CCN(C)CC3)C2=O)cc1` [NH-K-A19009, 8-fluoro-2-(1-methylpiperidin-4-yl)-4-[(4-methoxyphenyl)methyl]-1,5-dihydro-2,4-benzodiazepine-3-one] the same measures were 2.03 nM, 2.99 nM and 0.679.
As for `CN1CCC(N2Cc3cc(F)ccc3CN(Cc3ccc(CC(C)(C)O)cc3)C2=O)CC1` [NH-K-A19010, 7-fluoro-2-[[4-(2-hydroxy-2-methylpropyl)phenyl]methyl]-4-(1-methylpiperidin-4-yl)-1,5-dihydro-2,4-benzodiazepin-3-one], the results for the inhibition constant Ki on 5-HT2C receptor (setting [3]) and at 5-HT2A receptor (setting [4]) were 18.2 nM and 20.1 nM, respectively. For the same molecule, on 5-HT2A receptor, the 2C/2A was determined as 0.91.
As for `CC(C)Oc1ccc(CN2Cc3ccc(F)cc3CN(C3CCN(C)CC3)C2=O)c(F)c1` [NH-K-A19011, 8-fluoro-2-(1-methylpiperidin-4-yl)-4-[[(2-fluoro-4-isopropoxy)phenyl]methyl]-1,5-dihydro-2,4-benzodiazepine-3-one], the Ki at 5-HT2A receptor (setting [4]) was found to be 12.7 nM.
The term ED50 denotes the dose that gives a 50% effect, or the effect in half of the subjects. In the case of `CC(C)Oc1ccc(CN2Cc3ccc(F)cc3CN(C3CCN(C)CC3)C2=O)cc1F` [NH-K-A19012, 8-fluoro-2-(1-methylpiperidin-4-yl)-4-[[(3-fluoro-4-isopropoxy)phenyl]methyl]-1,5-dihydro-2,4-benzodiazepine-3-one], the Ki was 9.36 nM at 5-HT2C receptor (setting [3]) and 0.947 nM on 5-HT2A receptor (setting [4]). For the same molecule, the 50% effective dose (ED50) is 3.73 mg/kg in assay [1] and 0.3 mg/kg in assay [2]. For the same molecule, on 5-HT2A receptor, the 2C/2A worked out at 9.882.
In the case of `CC(C)Oc1ccc(CN2Cc3ccc(F)cc3CN(C3CCN(C)CC3)C2=O)cn1` [NH-K-A19013, 8-fluoro-2-(1-methylpiperidin-4-yl)-4-[[(6-isopropoxy)pyridin-3-yl]methyl]-1,5-dihydro-2,4-benzodiazepine-3-one], the Ki at 5-HT2A receptor (setting [4]) was determined as 9.78 nM.
On to `CC(C)COc1ccc(CN2Cc3ccc(F)cc3CN([C@H]3CCN(C)C[C@H]3F)C2=O)cc1` [NH-K-A19014-0, (3R,4S)-8-fluoro-2-(1-methyl-3-fluoropiperidin-4-yl)-4-[[4-(2-methylpropoxy)phenyl]methyl]-1,5-di hydro-2,4-benzodiazepine-3-one], for which the Ki came to 0.2 nM at 5-HT2C receptor and 4.19 nM at 5-HT2A receptor (setting [4]). Moreover, the 2C/2A on 5-HT2A receptor was determined as 0.049.
Taken in the same sequence, the figures for `CC(C)COc1ccc(CN2Cc3ccc(F)cc3CN([C@H]3CCN(C)C[C@@H]3F)C2=O)cc1` [NH-K-A19014-0A, (3S,4S)-8-fluoro-2-(1-methyl-3-fluoropiperidin-4-yl)-4-[[4-(2-methylpropoxy)phenyl]methyl]-1,5-dihydro-2,4-benzodiazepine-3-one] were 26.1 nM, 0.002 nM and 16029.47.
Regarding `CC(C)COc1ccc(CN2Cc3ccc(F)cc3CN(C3CCN(C)C3)C2=O)cc1` (stereo not drawn) [NH-K-A19015], the values for the Ki on 5-HT2C receptor and on 5-HT2A receptor were 0.41 nM and 1.69 nM, respectively.
As for `CC(C)COc1ccc(CN2Cc3ccc(F)cc3CC3(CCN(C)CC3)C2=O)cc1` [NH-K-A19019, 7-fluoro-1′-methyl-2-[[4-(2-methylpropoxy)phenyl]methyl]-1,2-dihydrospiro[benzo[c]azepine-4,4′-piperidine]-3(5H)-one], on 5-HT2A receptor (setting [4]), the inhibition constant (Ki) is 53.3 nM.
The same measure, in the same setting: to `CC(C)COc1ccc(CN2Cc3ccccc3CN(C3CCN(C)CC3)C2=O)cc1` [NH-K-A19020, 2-(1-methylpiperidin-4-yl)-4-[[4-(2-methylpropoxy)phenyl]methyl]-1,5-dihydro-2,4-benzodiazepine-3-one] belongs 1.74 nM.
As to `CN1CCC(N2Cc3ccc(F)cc3CN(Cc3ccc(OC4CC4)cc3)C2=O)CC1` [NH-K-A19022, 4-[(4-cyclopropoxyphenyl)methyl]-7-fluoro-2-(1-methylpiperidin-4-yl)-1,5-dihydro-2,4-benzodiaze pine-3-one], the Ki is 1.33 nM on 5-HT2C receptor (setting [3]) and 0.15 nM on 5-HT2A receptor (setting [4]). For the same molecule, the 2C/2A on 5-HT2A receptor was 8.76.
`CC(C)COc1ccc(CN2Cc3cc(F)c(F)cc3CN(C3CCN(C)CC3)C2=O)cc1` [NH-K-A20001, 7,8-difluoro-2-(4-isobutoxybenzyl)-4-(1-methylpiperidin-4-yl)-1,2,4,5-tetrahydro-3H-benzo[e][1,3]diazepin-3-one]: the inhibitory constant (Ki) on 5-HT2A receptor (setting [4]) amounted to 5.98 nM.
In the case of `CC(C)COc1ccc(CN2Cc3cc(Cl)ccc3CN(C3CCN(C)CC3)C2=O)cc1` [NH-K-A190017, 7-chloro-2-(1-methylpiperidin-4-yl)-4-[[4-(2-methylpropoxy)phenyl]methyl]-1,5-dihydro-2,4-benzo diazepine-3-one], the inhibitory constant (Ki) on 5-HT2C receptor (setting [3]) came out at 486 nM; at 5-HT2A receptor (setting [4]) it was 1.63 nM. Moreover, the 2C/2A on 5-HT2A receptor is given as 298.694.
